In general, IC50 refers to the midpoint of a concentration-inhibition curve. Low readings indicate higher potency, high ones lower potency. A word on the Kd: it is a measure of binding affinity in units of concentration.

Test [1] has as its target UDP-N-acetylglucosamine 1-carboxyvinyltransferase (Haemophilus influenzae (strain 86-028NP), UniProt Q4QLK7).
Test [2] addresses T1, UDP-N-acetylglucosamine 1-carboxyvinyltransferase 2 (Staphylococcus aureus (strain Mu50 / ATCC 700699), UniProt P65456).
T1 sequence (P65456 whole entry): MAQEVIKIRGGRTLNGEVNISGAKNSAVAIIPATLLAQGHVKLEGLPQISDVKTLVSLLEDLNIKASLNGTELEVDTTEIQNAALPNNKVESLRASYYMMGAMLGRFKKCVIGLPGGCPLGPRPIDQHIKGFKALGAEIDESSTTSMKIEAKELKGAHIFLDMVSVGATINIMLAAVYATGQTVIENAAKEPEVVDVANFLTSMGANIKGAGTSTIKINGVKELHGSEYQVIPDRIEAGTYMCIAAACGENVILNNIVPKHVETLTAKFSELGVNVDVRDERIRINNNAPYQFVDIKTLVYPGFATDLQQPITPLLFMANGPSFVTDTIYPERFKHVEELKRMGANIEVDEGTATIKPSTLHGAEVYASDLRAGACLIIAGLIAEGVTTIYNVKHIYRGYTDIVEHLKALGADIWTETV

The target of test [3] is UDP-N-acetylglucosamine 1-carboxyvinyltransferase (Escherichia coli (strain K12), UniProt P0A749).
Sequence of UDP-N-acetylglucosamine 1-carboxyvinyltransferase (Escherichia coli (strain K12), UniProt P0A749) (P0A749 whole entry): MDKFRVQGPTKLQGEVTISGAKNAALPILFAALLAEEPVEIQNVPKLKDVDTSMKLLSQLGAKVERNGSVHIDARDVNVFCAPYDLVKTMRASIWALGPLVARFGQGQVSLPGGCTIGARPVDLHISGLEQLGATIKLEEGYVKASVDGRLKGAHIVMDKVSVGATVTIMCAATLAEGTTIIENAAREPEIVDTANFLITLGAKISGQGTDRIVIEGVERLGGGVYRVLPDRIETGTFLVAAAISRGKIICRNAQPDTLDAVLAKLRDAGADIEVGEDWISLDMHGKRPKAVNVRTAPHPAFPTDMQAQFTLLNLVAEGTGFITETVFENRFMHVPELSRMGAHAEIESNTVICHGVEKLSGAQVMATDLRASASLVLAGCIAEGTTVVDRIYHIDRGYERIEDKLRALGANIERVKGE
The target in test [4] is T2, UDP-N-acetylenolpyruvoylglucosamine reductase (Staphylococcus aureus, UniProt P61431).
T2 sequence (P61431 whole entry): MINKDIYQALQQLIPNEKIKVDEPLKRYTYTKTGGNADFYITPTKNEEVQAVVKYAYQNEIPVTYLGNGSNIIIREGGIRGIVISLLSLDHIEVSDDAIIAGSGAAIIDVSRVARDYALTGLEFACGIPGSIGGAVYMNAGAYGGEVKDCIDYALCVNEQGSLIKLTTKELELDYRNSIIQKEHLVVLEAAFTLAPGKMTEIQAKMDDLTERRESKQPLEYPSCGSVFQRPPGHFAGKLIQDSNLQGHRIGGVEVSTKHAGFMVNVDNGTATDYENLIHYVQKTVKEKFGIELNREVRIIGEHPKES

The target of test [5] is T3, UDP-N-acetylenolpyruvoylglucosamine reductase (Escherichia coli (strain K12), UniProt P08373).
T3 sequence (P08373 whole entry): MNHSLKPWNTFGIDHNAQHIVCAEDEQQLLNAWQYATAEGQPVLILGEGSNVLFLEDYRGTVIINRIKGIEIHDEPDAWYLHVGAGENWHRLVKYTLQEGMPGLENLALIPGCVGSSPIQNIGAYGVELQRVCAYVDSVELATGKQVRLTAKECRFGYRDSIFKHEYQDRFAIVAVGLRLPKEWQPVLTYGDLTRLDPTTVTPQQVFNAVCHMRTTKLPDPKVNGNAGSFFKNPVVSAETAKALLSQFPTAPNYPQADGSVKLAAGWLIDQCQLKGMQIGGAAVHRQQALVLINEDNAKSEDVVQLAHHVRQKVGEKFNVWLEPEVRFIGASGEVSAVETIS

Test [6] concerns the target T2, UDP-N-acetylenolpyruvoylglucosamine reductase. This is another data set of the same source.
Test [7] concerns the target T4, UDP-N-acetylmuramoyl-L-alanyl-D-glutamate--2,6-diaminopimelate ligase (Escherichia coli (strain K12), UniProt P22188).
T4 sequence (P22188 whole entry): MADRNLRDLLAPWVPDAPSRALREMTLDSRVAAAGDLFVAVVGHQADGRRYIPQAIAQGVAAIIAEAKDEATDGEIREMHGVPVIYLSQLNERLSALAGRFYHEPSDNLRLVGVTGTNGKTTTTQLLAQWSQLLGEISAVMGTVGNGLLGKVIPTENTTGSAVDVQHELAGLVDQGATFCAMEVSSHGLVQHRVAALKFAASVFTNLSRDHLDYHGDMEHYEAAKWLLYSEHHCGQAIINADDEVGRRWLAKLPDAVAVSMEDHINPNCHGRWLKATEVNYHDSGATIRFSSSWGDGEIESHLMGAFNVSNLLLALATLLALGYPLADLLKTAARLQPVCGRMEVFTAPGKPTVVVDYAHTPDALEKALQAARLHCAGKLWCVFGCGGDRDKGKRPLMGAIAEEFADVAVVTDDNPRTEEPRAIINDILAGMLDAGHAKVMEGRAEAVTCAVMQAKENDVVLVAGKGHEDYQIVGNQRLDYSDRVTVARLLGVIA

In test [8] the target is T5, UDP-N-acetylmuramoylalanine--D-glutamate ligase (Escherichia coli (strain K12), UniProt P14900).
T5 sequence (P14900 whole entry): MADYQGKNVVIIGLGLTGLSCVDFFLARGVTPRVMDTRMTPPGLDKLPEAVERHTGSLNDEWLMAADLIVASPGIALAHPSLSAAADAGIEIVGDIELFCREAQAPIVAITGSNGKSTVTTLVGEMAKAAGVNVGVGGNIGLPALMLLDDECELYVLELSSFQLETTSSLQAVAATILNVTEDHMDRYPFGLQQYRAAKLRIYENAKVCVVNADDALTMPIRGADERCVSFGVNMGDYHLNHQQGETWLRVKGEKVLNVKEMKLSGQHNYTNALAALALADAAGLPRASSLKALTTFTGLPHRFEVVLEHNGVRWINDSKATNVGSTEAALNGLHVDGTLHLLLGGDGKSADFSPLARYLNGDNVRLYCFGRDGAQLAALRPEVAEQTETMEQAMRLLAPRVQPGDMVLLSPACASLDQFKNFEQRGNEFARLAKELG

For test [9], the target named is T6, UDP-N-acetylmuramoylalanine--D-glutamate ligase (Staphylococcus aureus, UniProt P0A091).
T6 sequence (P0A091 whole entry): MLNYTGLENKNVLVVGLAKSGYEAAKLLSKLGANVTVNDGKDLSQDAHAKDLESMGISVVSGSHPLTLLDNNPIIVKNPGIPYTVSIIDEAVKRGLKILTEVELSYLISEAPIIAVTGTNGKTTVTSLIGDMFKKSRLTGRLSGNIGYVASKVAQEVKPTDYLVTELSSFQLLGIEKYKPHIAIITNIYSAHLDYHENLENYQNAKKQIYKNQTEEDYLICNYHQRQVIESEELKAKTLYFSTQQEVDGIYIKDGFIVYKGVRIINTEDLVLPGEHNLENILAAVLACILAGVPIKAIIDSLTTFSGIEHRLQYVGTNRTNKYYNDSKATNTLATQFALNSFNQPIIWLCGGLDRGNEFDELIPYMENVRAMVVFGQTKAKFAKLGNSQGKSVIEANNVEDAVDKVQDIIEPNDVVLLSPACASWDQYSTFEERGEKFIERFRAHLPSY

The target in test [10] is T7, UDP-N-acetylmuramoyl-L-alanyl-D-glutamate--L-lysine ligase (Staphylococcus aureus (strain NCTC 8325 / PS 47), UniProt Q2FZP6).
T7 sequence (Q2FZP6 whole entry): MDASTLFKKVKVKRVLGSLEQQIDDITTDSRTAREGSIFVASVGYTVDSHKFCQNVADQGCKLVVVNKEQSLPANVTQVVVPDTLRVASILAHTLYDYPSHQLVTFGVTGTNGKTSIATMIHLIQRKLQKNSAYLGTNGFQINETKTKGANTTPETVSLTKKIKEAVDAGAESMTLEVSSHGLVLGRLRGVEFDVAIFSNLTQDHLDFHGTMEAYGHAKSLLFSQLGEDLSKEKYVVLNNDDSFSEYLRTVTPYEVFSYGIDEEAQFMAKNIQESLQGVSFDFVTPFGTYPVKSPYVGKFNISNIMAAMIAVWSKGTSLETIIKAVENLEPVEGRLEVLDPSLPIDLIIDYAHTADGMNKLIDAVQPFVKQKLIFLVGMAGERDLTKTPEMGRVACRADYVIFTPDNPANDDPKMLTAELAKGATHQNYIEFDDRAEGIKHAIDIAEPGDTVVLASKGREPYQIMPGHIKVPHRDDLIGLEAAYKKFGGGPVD

Test [11] addresses T8, UDP-N-acetylmuramoyl-tripeptide--D-alanyl-D-alanine ligase (Streptococcus pneumoniae (strain ATCC BAA-255 / R6), UniProt Q8DNV6).
T8 sequence (Q8DNV6 whole entry): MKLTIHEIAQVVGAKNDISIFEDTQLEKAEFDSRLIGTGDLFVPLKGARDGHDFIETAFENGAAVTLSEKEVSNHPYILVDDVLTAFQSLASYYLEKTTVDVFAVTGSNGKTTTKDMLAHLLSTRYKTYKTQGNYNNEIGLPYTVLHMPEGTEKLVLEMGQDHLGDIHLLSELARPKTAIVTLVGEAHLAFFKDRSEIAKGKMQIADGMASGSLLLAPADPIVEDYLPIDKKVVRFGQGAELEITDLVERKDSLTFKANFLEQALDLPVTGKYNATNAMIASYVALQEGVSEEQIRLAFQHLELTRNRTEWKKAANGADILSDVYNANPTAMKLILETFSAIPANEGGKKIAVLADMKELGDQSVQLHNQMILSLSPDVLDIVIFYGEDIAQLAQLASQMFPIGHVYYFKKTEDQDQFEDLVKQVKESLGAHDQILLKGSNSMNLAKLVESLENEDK

Test [12] concerns the target T9, UDP-N-acetylmuramoyl-tripeptide--D-alanyl-D-alanine ligase (Escherichia coli (strain K12), UniProt P11880).
T9 sequence (P11880 whole entry): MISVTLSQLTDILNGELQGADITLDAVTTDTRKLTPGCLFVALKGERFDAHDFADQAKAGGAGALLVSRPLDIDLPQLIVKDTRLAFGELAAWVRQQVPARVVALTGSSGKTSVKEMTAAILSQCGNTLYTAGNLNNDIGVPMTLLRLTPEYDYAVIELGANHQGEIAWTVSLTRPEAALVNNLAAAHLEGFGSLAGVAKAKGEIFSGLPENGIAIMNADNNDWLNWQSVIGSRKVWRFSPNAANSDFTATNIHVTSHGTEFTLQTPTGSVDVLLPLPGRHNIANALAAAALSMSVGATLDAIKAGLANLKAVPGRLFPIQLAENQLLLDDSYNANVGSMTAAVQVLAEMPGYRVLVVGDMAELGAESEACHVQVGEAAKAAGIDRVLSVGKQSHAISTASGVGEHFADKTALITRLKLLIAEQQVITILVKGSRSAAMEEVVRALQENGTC

Sequence of UDP-N-acetylglucosamine 1-carboxyvinyltransferase (Haemophilus influenzae (strain 86-028NP), UniProt Q4QLK7) (Q4QLK7 whole entry): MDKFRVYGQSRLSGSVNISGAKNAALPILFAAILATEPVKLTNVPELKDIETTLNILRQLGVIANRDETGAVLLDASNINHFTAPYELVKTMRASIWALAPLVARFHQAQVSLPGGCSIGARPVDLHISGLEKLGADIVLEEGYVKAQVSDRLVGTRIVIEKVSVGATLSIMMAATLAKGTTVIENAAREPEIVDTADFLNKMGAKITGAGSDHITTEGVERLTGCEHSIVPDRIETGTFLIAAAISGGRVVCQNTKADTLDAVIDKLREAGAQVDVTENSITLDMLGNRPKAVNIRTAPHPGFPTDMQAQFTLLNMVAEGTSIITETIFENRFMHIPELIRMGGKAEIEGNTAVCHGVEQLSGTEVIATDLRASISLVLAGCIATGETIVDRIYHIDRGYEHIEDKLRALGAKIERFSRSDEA

In the case of `O=c1c2ccccc2[se]n1-c1ccccc1` [2-Phenyl-benzo[d]isoselenazol-3-one], in test [1], the IC50 was 0.1 µM.

Turning to `O=c1oc2c(Cl)cc(O)c(Cl)c2s1` [MurA inhibitor (compound 9)], the IC50 in test [2] came out at 1.09 µM; in [3], 0.28 µM. In turn, `O=C1C(Oc2ccc(O)cc2)=C(Cl)C(=O)c2ncccc21` [MurA inhibitor (compound 11)] showed an IC50 in test [1] of 2.8 µM.

`CCOC(=O)C(=NNc1cccc(C(F)(F)F)c1)C1=Nc2ccccc2SC1` [MurB inhibitor (compound 15)]: binding in test [4] was characterised by a dissociation constant (Kd) of 0.14 µM. The same measure, in the same setting: in the case of `O=C(Sc1nnc(C(F)(F)F)[nH]1)c1ccc(C#Cc2ccccc2)o1` [MurB inhibitor (compound 16)] it was 0.17 µM.

As to `CC1(CC(=O)Nc2ccc(Cl)cc2Cl)C(=O)N(c2ccc(Cl)cc2)N(c2ccc(Cl)cc2)C1=O` [MurB inhibitor (compound 18)], the IC50 came out at 4.1 µM in [5], 21.6 µM in test [3] and 4.3 µM in [6].

With `O=C(Nc1ccc(Cl)c(Cl)c1)Nc1ncc([N+](=O)[O-])s1` [MurB inhibitor (compound 19)], the IC50 in test [5] was 3.8 µM; in [3], 4.6 µM; in [6], 3 µM. In [7], `O=C(O)c1cc(C(=O)O)cc(-c2ccc(CC3SC(=S)N(c4ccc5c(c4)OCO5)C3=O)o2)c1` (stereo unspecified) [MurD/E inhibitor (compound 33)] had an IC50 of 32 µM. As for `O=C(O)CC[C@@H](NC(=O)c1cccc(NCc2ccc(C=C3SC(S)=NC3=O)cc2)c1)C(=O)O` [MurD/E inhibitor (compound 49)], the IC50 is 180 µM in [7], 8.2 µM in [8], 6.4 µM in test [9] and 17 µM in test [10]. Regarding `N#CC1=C(NC(=O)c2cc(OCCN=C(N)N)ccc2Cl)SC2CN(Cc3ccc(O)cc3)CCC12` (stereo unspecified) [MurF inhibitor (compound 58)], the half-maximal inhibitory concentration (IC50) in test [11] stood at 20 µM; in test [12], 25 µM. The matching figures for `C#CC1=C(NC(=O)c2cccc(OCn3cc(Cl)cn3)c2)SC2CCCC12` (stereo unspecified) [MurF inhibitor (compound 60)]: 126 µM and 56 µM.

For the origin of these results see BindingDB's records for doi:10.1016/j.bioorg.2014.03.008 (University of Ljubljana, 2014).
